Paper PMC8076879 (Acta Pharmacologica Sinica, 2021)

Tests used:
in vitro = details: African green monkey
[1] = Cytotoxicity in Huh-7 cells, CCK8 assay; assay type: cell-based; details: human
[2] = Cytotoxicity in HEK293T cells, CCK8 assay; assay type: cell-based; details: human
[3] = cited from earlier work
[4] = cited from earlier work; remark: listed apart in the source
SARS-CoV-2 = details: read-out: anti-SARS-CoV-2 EC50 (reported); cited from earlier work

Compound	CC50 (in vitro) [µM]	CC50 [1] [µM]	CC50 [2] [µM]	crossing of the blood-brain barrier [3]	toxicity in animal toxicological experiments [4]	EC50 (SARS-CoV-2) [µM]
O[C@H]1[C@H]2c3cc4c(cc3CN3CCC(=C[C@@H]1O)[C@H]23)OCO4 [lycorine]	> 1000	0.834 ± 0.063	1.04 ± 0.0734	able to cross the blood-brain barrier	low toxicity and mild side effects	0.31
CC[C@H]1CN2CCc3cc(OC)c(OC)cc3[C@@H]2C[C@@H]1C[C@H]1NCCc2cc(OC)c(OC)cc21 [emetine]	2.17 ± 0.258	0.0334 ± 0.000617	0.0378 ± 0.000562			0.46
CC[C@H]1CN2CCc3cc(OC)c(OC)cc3[C@@H]2C[C@@H]1C[C@H]1NCCc2cc(O)c(OC)cc21 [cephaeline]	49 ± 46.3	3.04 ± 1.7	2 ± 0.468			
